Source: BindingDB's records for doi:10.1016/j.bmcl.2005.07.021 (Johnson & Johnson Pharmaceutical Research and Development, 2005)

What follows are compounds tested against Glycogen phosphorylase, muscle form (Oryctolagus cuniculus) (UniProt P00489) (assay: Inhibitory concentration against glycogen phosphorylase of rabbit muscle).
Glycogen phosphorylase, muscle form (Oryctolagus cuniculus), sequence (P00489 whole entry, looked up): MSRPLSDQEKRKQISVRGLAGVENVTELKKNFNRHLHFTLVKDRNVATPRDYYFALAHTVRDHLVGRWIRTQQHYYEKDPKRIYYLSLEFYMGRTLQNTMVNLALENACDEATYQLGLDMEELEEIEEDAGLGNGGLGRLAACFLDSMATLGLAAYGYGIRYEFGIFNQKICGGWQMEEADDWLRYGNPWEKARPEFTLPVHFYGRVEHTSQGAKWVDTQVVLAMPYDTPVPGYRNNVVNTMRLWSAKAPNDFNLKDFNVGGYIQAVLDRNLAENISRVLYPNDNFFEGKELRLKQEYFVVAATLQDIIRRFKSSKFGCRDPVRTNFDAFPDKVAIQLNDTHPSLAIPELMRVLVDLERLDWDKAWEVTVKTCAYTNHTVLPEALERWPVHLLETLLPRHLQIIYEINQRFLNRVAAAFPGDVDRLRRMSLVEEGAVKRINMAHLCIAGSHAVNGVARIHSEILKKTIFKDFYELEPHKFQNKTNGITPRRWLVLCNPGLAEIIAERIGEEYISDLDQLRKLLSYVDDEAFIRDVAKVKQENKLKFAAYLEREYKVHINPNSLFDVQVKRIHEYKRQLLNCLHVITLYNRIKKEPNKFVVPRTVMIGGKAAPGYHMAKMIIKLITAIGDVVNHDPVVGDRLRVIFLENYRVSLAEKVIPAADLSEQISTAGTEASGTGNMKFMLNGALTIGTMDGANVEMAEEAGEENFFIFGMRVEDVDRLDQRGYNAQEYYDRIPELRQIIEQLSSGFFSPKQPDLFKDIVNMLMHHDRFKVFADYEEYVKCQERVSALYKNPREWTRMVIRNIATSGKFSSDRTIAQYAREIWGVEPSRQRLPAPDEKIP
With `CN(c1ccc(C(=O)Nc2ccon2)cc1)c1nc2ccccc2n(C)c1=O` the IC50 was > 10 µM. `Cn1c(=O)c(Nc2ccc(-c3ccc[nH]3)cc2)nc2ccccc21` [1-Methyl-3-[4-(1H-pyrrol-2-yl)-phenylamino]-1H-quinoxalin-2-one] showed an IC50 of 2.5 µM. For `Cn1c(=O)c(Nc2ccc(NC(=O)c3ccc[nH]3)cc2)nc2ccccc21` [1H-Pyrrole-2-carboxylic acid [4-(4-methyl-3-oxo-3,4-dihydro-quinoxalin-2-ylamino)-phenyl]-amide], the IC50 was > 10 µM. Compound `Cn1c(=O)c(Nc2ccc(-c3ccoc3)cc2)nc2ccccc21` [3-(4-Furan-3-yl-phenylamino)-1-methyl-1H-quinoxalin-2-one] has an IC50 of 5 µM. Work on `O=c1[nH]c2ccccc2nc1Nc1ccccc1` [3-Phenylamino-1H-quinoxalin-2-one] yielded an IC50 of 2.5 µM. In the case of `CC(C)n1c(=O)c(Nc2ccc(C(=O)NCc3cccs3)cc2)nc2ccccc21` [4-(4-Isopropyl-3-oxo-3,4-dihydro-quinoxalin-2-ylamino)-N-thiophen-2-ylmethyl-benzamide], the IC50 is reported as > 10 µM. `Cn1c(=O)c(Nc2ccc(C(=O)NCCc3cccs3)cc2)nc2ccccc21` [4-(4-Methyl-3-oxo-3,4-dihydro-quinoxalin-2-ylamino)-N-(2-thiophen-2-yl-ethyl)-benzamide] was tested, and the IC50 was > 10 µM. `CN(C)CCn1c(=O)c(Nc2ccc(C(=O)NCc3cccs3)cc2)nc2ccccc21` [4-[4-(2-Dimethylamino-ethyl)-3-oxo-3,4-dihydro-quinoxalin-2-ylamino]-N-thiophen-2-ylmethyl-benzamide] was tested, and the IC50 was 0.71 µM. With `O=C(NCc1cccs1)c1ccc(Nc2nc3ccccc3n(CCO)c2=O)cc1` [4-[4-(2-Hydroxy-ethyl)-3-oxo-3,4-dihydro-quinoxalin-2-ylamino]-N-thiophen-2-ylmethyl-benzamide] the IC50 was 0.32 µM. In the case of `O=C(O)Cn1c(=O)c(Nc2ccc(C(=O)NCc3cccs3)cc2)nc2ccccc21` [(2-Oxo-3-{4-[(thiophen-2-ylmethyl)-carbamoyl]-phenylamino}-2H-quinoxalin-1-yl)-acetic acid], the IC50 is reported as 5.7 µM. `Cn1c(=O)c(Nc2ccc(NC(=O)c3ccco3)cc2)nc2ccccc21` [Furan-2-carboxylic acid [4-(4-methyl-3-oxo-3,4-dihydro-quinoxalin-2-ylamino)-phenyl]-amide] gave an IC50 of 2.5 µM. In the case of `Cn1c(=O)c(Nc2cccc(NC(=O)c3ccno3)c2)nc2ccccc21` [Isoxazole-5-carboxylic acid [3-(4-methyl-3-oxo-3,4-dihydro-quinoxalin-2-ylamino)-phenyl]-amide], the IC50 is reported as > 10 µM.
